Data as given in ChEMBL document CHEMBL3044646, “Management of tomato leaf mould caused by Cladosporium fulvum with trifloxystrobin” (2007).

Key:
Assay type in all cases: functional
[1] = tested on: Fulvia fulva; test: Antifungal activity against Passalora fulva infected tomato cultivar Alma F1 plants grown in growth chamber assessed as reduction in lesions on leaf at 20 ug a.i./ml sprayed 48 hr post-inoculation measured after 22 days relative to control; set-up: scale not given: the % may be the effect or the level left
[2] = tested on: Fulvia fulva; test: Antifungal activity against Passalora fulva infected tomato cultivar Alma F1 plants grown in growth chamber assessed as reduction in lesions on leaf at 20 ug a.i./ml sprayed 24 hr post-inoculation measured after 22 days relative to control; set-up: scale not given: the % may be the effect or the level left
[3] = tested on: Fulvia fulva; test: Antifungal activity against Passalora fulva infected tomato cultivar Alma F1 plants grown in growth chamber assessed as inhibition of sporulation at 20 ug a.i./ml applied at 15 days post-inoculation after appearance of symptoms followed by incubation in growth chamber for 72 hr relative to control
[4] = tested on: Fulvia fulva; test: Antifungal activity against Passalora fulva infected tomato cultivar Alma F1 plants grown in growth chamber assessed as inhibition of sporulation at 10 ug a.i./ml applied at 15 days post-inoculation after appearance of symptoms followed by incubation in growth chamber for 72 hr relative to control
[5] = tested on: Fulvia fulva; test: Antifungal activity against Passalora fulva infected tomato cultivar Alma F1 plants grown in growth chamber assessed as inhibition of sporulation at 5 ug a.i./ml applied at 15 days post-inoculation after appearance of symptoms followed by incubation in growth chamber for 72 hr relative to control
[6] = tested on: Fulvia fulva; test: Antifungal activity against Passalora fulva infected tomato cultivar Alma F1 plants grown in growth chamber assessed as reduction in lesions on leaf at 10 ug a.i./ml sprayed 96 hr post-inoculation measured after 22 days relative to control; set-up: scale not given: the % may be the effect or the level left
[7] = tested on: Fulvia fulva; test: Antifungal activity against Passalora fulva infected tomato cultivar Alma F1 plants grown in growth chamber assessed as reduction in lesions on leaf at 10 ug a.i./ml sprayed 48 hr post-inoculation measured after 22 days relative to control; set-up: scale not given: the % may be the effect or the level left
[8] = tested on: Fulvia fulva; test: Antifungal activity against Passalora fulva infected tomato cultivar Alma F1 plants grown in growth chamber assessed as reduction in lesions on leaf at 10 ug a.i./ml sprayed 24 hr post-inoculation measured after 22 days relative to control; set-up: scale not given: the % may be the effect or the level left
[9] = tested on: Fulvia fulva; test: Antifungal activity against Passalora fulva infected tomato cultivar Alma F1 plants grown in growth chamber assessed as reduction in lesions on leaf at 5 ug a.i./ml sprayed 96 hr post-inoculation measured after 22 days relative to control; set-up: scale not given: the % may be the effect or the level left
[10] = tested on: Fulvia fulva; test: Antifungal activity against Passalora fulva infected tomato cultivar Alma F1 plants grown in growth chamber assessed as reduction in lesions on leaf at 5 ug a.i./ml sprayed 48 hr post-inoculation measured after 22 days relative to control; set-up: scale not given: the % may be the effect or the level left
[11] = tested on: Fulvia fulva; test: Antifungal activity against Passalora fulva infected tomato cultivar Alma F1 plants grown in growth chamber assessed as reduction in lesions on leaf at 5 ug a.i./ml sprayed 24 hr post-inoculation measured after 22 days relative to control; set-up: scale not given: the % may be the effect or the level left
[12] = tested on: Fulvia fulva; test: Antifungal activity against Passalora fulva infected tomato cultivar Alma F1 plants grown in growth chamber assessed as reduction in lesions on leaf at 20 ug a.i./ml sprayed 24 hr prior to inoculation measured after 22 days relative to control; set-up: scale not given: the % may be the effect or the level left
[13] = tested on: Fulvia fulva; test: Antifungal activity against Passalora fulva infected tomato cultivar Alma F1 plants grown in growth chamber assessed as reduction in lesions on leaf at 20 ug a.i./ml sprayed 48 hr prior to inoculation measured after 22 days relative to control; set-up: scale not given: the % may be the effect or the level left
[14] = tested on: Fulvia fulva; test: Antifungal activity against Passalora fulva infected tomato cultivar Alma F1 plants grown in growth chamber assessed as reduction in lesions on leaf at 20 ug a.i./ml sprayed 96 hr prior to inoculation measured after 22 days relative to control; set-up: scale not given: the % may be the effect or the level left
[15] = tested on: Fulvia fulva; test: Antifungal activity against Passalora fulva infected tomato cultivar Alma F1 plants grown in growth chamber assessed as reduction in lesions on leaf at 10 ug a.i./ml sprayed 24 hr prior to inoculation measured after 22 days relative to control; set-up: scale not given: the % may be the effect or the level left
[16] = tested on: Fulvia fulva; test: Antifungal activity against Passalora fulva infected tomato cultivar Alma F1 plants grown in growth chamber assessed as reduction in lesions on leaf at 10 ug a.i./ml sprayed 48 hr prior to inoculation measured after 22 days relative to control; set-up: scale not given: the % may be the effect or the level left
[17] = tested on: Fulvia fulva; test: Antifungal activity against Passalora fulva infected tomato cultivar Alma F1 plants grown in growth chamber assessed as reduction in lesions on leaf at 10 ug a.i./ml sprayed 96 hr prior to inoculation measured after 22 days relative to control; set-up: scale not given: the % may be the effect or the level left
[18] = tested on: Fulvia fulva; test: Antifungal activity against Passalora fulva infected tomato cultivar Alma F1 plants grown in growth chamber assessed as reduction in lesions on leaf at 5 ug a.i./ml sprayed 24 hr prior to inoculation measured after 22 days relative to control; set-up: scale not given: the % may be the effect or the level left
[19] = tested on: Fulvia fulva; test: Antifungal activity against Passalora fulva infected tomato cultivar Alma F1 plants grown in growth chamber assessed as reduction in lesions on leaf at 5 ug a.i./ml sprayed 48 hr prior to inoculation measured after 22 days relative to control; set-up: scale not given: the % may be the effect or the level left
[20] = tested on: Fulvia fulva; test: Antifungal activity against Passalora fulva infected tomato cultivar Alma F1 plants grown in growth chamber assessed as reduction in lesions on leaf at 5 ug a.i./ml sprayed 96 hr prior to inoculation measured after 22 days relative to control; set-up: scale not given: the % may be the effect or the level left
[21] = tested on: Fulvia fulva; test: Antifungal activity against Passalora fulva infected tomato cultivar Alma F1 plants grown in growth chamber assessed as reduction in lesions on leaf at 20 ug a.i./ml sprayed 96 hr post-inoculation measured after 22 days relative to control; set-up: scale not given: the % may be the effect or the level left
[22] = tested on: Fulvia fulva; test: Antifungal activity against Passalora fulva infected tomato cultivar Alma F1 plants grown in growth chamber assessed as inhibition of sporulation at 100 ug a.i./ml applied at 15 days post-inoculation after appearance of symptoms followed by incubation in growth chamber for 72 hr relative to control; set-up: scale not given: the % may be the effect or the level left
[23] = tested on: Fulvia fulva; test: Antifungal activity against Passalora fulva infected tomato cultivar Alma F1 plants grown in growth chamber assessed as reduction in lesions on leaf at 100 ug a.i./ml sprayed 24 hr prior to inoculation measured after 22 days relative to control; set-up: scale not given: the % may be the effect or the level left
[24] = tested on: Fulvia fulva; test: Antifungal activity against Passalora fulva infected tomato cultivar Alma F1 plants grown in growth chamber assessed as reduction in lesions on leaf at 100 ug a.i./ml sprayed 48 hr prior to inoculation measured after 22 days relative to control; set-up: scale not given: the % may be the effect or the level left
[25] = tested on: Fulvia fulva; test: Antifungal activity against Passalora fulva infected tomato cultivar Alma F1 plants grown in growth chamber assessed as reduction in lesions on leaf at 100 ug a.i./ml sprayed 96 hr prior to inoculation measured after 22 days relative to control; set-up: scale not given: the % may be the effect or the level left
[26] = tested on: Fulvia fulva; test: Antifungal activity against Passalora fulva infected tomato cultivar Alma F1 plants grown in growth chamber assessed as reduction in lesions on leaf at 100 ug a.i./ml sprayed 96 hr post-inoculation measured after 22 days relative to control; set-up: scale not given: the % may be the effect or the level left
[27] = tested on: Fulvia fulva; test: Antifungal activity against Passalora fulva infected tomato cultivar Alma F1 plants grown in growth chamber assessed as reduction in lesions on leaf at 100 ug a.i./ml sprayed 48 hr post-inoculation measured after 22 days relative to control; set-up: scale not given: the % may be the effect or the level left
[28] = tested on: Fulvia fulva; test: Antifungal activity against Passalora fulva infected tomato cultivar Alma F1 plants grown in growth chamber assessed as reduction in lesions on leaf at 100 ug a.i./ml sprayed 24 hr post-inoculation measured after 22 days relative to control; set-up: scale not given: the % may be the effect or the level left

**Q.** What does the source list for `CO/N=C(\C(=O)OC)c1ccccc1CO/N=C(\C)c1cccc(C(F)(F)F)c1`?
**A.** Activity [1]: 94.5%; Activity [2]: 93.3%; inhibition (INH) [3]: 85.1%; inhibition (INH) [4]: 55.7%; inhibition (INH) [5]: 23.2%; Activity [6]: 60.1%; Activity [7]: 76.1%; Activity [8]: 89%; Activity [9]: 45.7%; Activity [10]: 60.9%; Activity [11]: 69.9%; Activity [12]: 96.5%; Activity [13]: 96.5%; Activity [14]: 94%; Activity [15]: 93.9%; Activity [16]: 90.9%; Activity [17]: 85.3%; Activity [18]: 88.2%; Activity [19]: 85.3%; Activity [20]: 72.8%; Activity [21]: 66.7%

**Q.** For `N#Cc1c(Cl)c(Cl)c(Cl)c(C#N)c1Cl` [CHLOROTHALONIL], which Activity [22] is on record?
**A.** The Activity was 43.2%.

**Q.** And the Activity [23]?
**A.** The Activity was 96.5%.

**Q.** And the Activity [24]?
**A.** Its Activity is 95.2%.

**Q.** And the Activity [25]?
**A.** Its Activity is 84.4%.

**Q.** And the Activity [26]?
**A.** The Activity was 48.4%.

**Q.** What about the Activity [27] of the same molecule?
**A.** The Activity was 73.4%.

**Q.** And the Activity [28]?
**A.** Its Activity is 91%.
